pIC50: −log10 of the molar value.
Key:
Assay in all cases: Six-day cell proliferation assay (CellTiter-Glo)
Type in all cases: cell-based
AMO-1 = settings: Homo sapiens, AMO1, 144 h; AMO-1 (Plasmacytoma), 6 days; read-out: Average day 6 gIC50
Procedure: (§1) Six-day cell proliferation assay
(§2) Optimal cell seeding density was determined empirically for each cell lines by examining the gro wth of a wide ran ge o f seedin g densities in a 3 84-well formatto identify conditio ns that permitted maximal and continued proliferation for 6 days. Cells were plat ed in duplicate plates 24 hours before treatment with a 20- point two-fold dilution series of compound or 0.15%
(§3) DMSO. Plates were incubated for 6 da ys at 37°C in 5% CO2. Cells were th en l ysed with CellTiter-Glo (CTG) (Pr omega) and chemiluminescent sign al was detected with an appropriat e microplate reader. In addition, an untreated plate of cells was harvested at the time of compound addition (T0) to quantif y the initial cell densit y. CTG values obtained after 6 days of treatment were expressed as a percent of the T0 value and plotted against compound concentration. […]
(§4) Supplementary Table S 3. […] A p anel […]
(§5) of cell lines was treated with EZM2302fo r 6da ys in a proliferation ass a y. Cell densit y (as assessed b y CellTiter-Gl o) at da y 0 was compared to day 6 to det ermine growth IC 50 values , calculated us i n g a f our parameter dose response equation.
(§6) Cell Type According to Cell Type Category Cell L ine Name gIC50 Average day 6 Standard Replicates
(§7) Supplier Modifier gIC50 (nM) Deviation […]
(§8) Burkitt lymphoma lymphoma NC-37 > 7331 0 2 […]

ARH-77 = settings: Homo sapiens, 144 h; ARH-77 (EBV+ lymphoblastoid), 6 days; read-out: Average day 6 gIC50
Procedure: as §1, §2, §3, §4, §5, §6, §7, §8

DB = settings: Homo sapiens, 144 h; DB (GCB DLBCL), 6 days; read-out: Average day 6 gIC50
Procedure: as §1, §2, §3, §4, §5, §6, §7, §8

HT = settings: Homo sapiens, 144 h; HT (GCB DLBCL), 6 days; read-out: Average day 6 gIC50
Procedure: as §1, §2, §3, §4, §5, §6, §7, §8

HuNS1 = settings: 144 h; HuNS1 (Transformed B-lymphoblastoid), 6 days; read-out: Average day 6 gIC50
Procedure: as §1, §2, §3, §4, §5, §6, §7, §8

JJN3 = settings: Homo sapiens, JJN-3, 144 h; JJN3 (Plasma cell leukemia), 6 days; read-out: Average day 6 gIC50
Procedure: as §1, §2, §3, §4, §5, §6, §7, §8

KMS-11 = settings: Homo sapiens, 144 h; KMS-11 (Myeloma), 6 days; read-out: Average day 6 gIC50
Procedure: as §1, §2, §3, §4, §5, §6, §7, §8

KMS-12PE = settings: Homo sapiens, 144 h; KMS-12PE (MM, Pleural effusion), 6 days; read-out: Average day 6 gIC50
Procedure: as §1, §2, §3, §4, §5, §6, §7, §8

LP-1 = settings: Homo sapiens, 144 h; LP-1 (MM), 6 days; read-out: Average day 6 gIC50
Procedure: as §1, §2, §3, §4, §5, §6, §7, §8

MM.1R = settings: 144 h; MM.1R (MM), 6 days; read-out: Average day 6 gIC50
Procedure: as §1, §2, §3, §4, §5, §6, §7, §8

MV-4-11 = settings: Homo sapiens, MV4-11, 144 h; MV-4-11 (AML), 6 days; read-out: Average day 6 gIC50
Procedure: as §1, §2, §3, §4, §5, §6, §7, §8

NCI-H929 = settings: Homo sapiens, 144 h; NCI-H929 (MM), 6 days; read-out: Average day 6 gIC50
Procedure: as §1, §2, §3, §4, §5, §6, §7, §8

## CNC[C@@H](O)COc1ccc(Cl)c(-c2nc(-c3c(C)noc3C)c(C)c(N3CC4(CCN(C(=O)OC)CC4)C3)n2)c1 [EZM2302]
AMO-1
  pIC50: < 4.59
ARH-77
  pIC50: < 5.37
DB
  pIC50: < 5.13
HT
  pIC50: < 5.13
HuNS1
  pIC50: < 4.72
JJN3
  pIC50: < 4.89
KMS-11
  pIC50: < 4.74
KMS-12PE
  pIC50: < 4.75
LP-1
  pIC50: 5.58
MM.1R
  pIC50: 6.67
MV-4-11
  pIC50: < 5.10
NCI-H929
  pIC50: 6.06

— paper PMC5740082, “Identification of a CARM1 Inhibitor with Potent In Vitro and In Vivo Activity in Preclinical Models of Multiple Myeloma” (Scientific Reports, 2017)
